Results from PubChem BioAssay AID248 (DTP/NCI, 2004).
Values joined by “and” are separate entries in the source; they are usually repeats but may differ in a detail not shown here. Equal entries are not always repeated. Toxic doses and inconclusive results are not listed. No stated cut-off is given here; in the data, active means T/C of 150% or more; inactive means T/C below 125%.

Test system: L1210 leukemia ip in BDF1 mice, survival T/C
Assay: NCI In Vivo Anticancer Drug Screen. Data for tumor model L1210 Leukemia (intraperitoneal) in B6D2F1 (BDF1) mice
Conditions: endpoint: mean survival time, higher = longer survival
Summary of the method: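 Ratio derived from survival: compound-dosed mice over vehicle-dosed mice, all bearing a transplantable tumor.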

[1] = dose: 100.0 mg/kg/injection, schedule: Q01DX001 (ip), vehicle: Klucel (hydroxypropylcellulose) (HPC)
[2] = dose: 200.0 mg/kg/injection, schedule: Q01DX001 (ip), vehicle: Klucel (hydroxypropylcellulose) (HPC)
[3] = dose: 400.0 mg/kg/injection, schedule: Q01DX001 (ip), vehicle: Klucel (hydroxypropylcellulose) (HPC)
[4] = dose: 100.0 mg/kg/injection, schedule: Q01DX009 (ip), vehicle: saline with Tween-80
[5] = dose: 200.0 mg/kg/injection, schedule: Q01DX009 (ip), vehicle: saline with Tween-80
[6] = dose: 400.0 mg/kg/injection, schedule: Q01DX009 (ip), vehicle: saline with Tween-80
[7] = dose: 100.0 mg/kg/injection, schedule: Q04DX002 (ip), vehicle: saline
[8] = dose: 200.0 mg/kg/injection, schedule: Q04DX002 (ip), vehicle: saline
[9] = dose: 400.0 mg/kg/injection, schedule: Q04DX002 (ip), vehicle: saline
[10] = dose: 200.0 mg/kg/injection, schedule: Q04DX002 (ip), vehicle: Klucel (hydroxypropylcellulose) (HPC)
[11] = dose: 400.0 mg/kg/injection, schedule: Q04DX002 (ip), vehicle: Klucel (hydroxypropylcellulose) (HPC)

Measured: T/C

CC(CN(C)C)C(=O)/C=C/c1ccccc1 (stereo unspecified)
inactive: dose: 12.5 mg/kg/injection, schedule: Q01DX009 (ip), vehicle: saline 103 % of control | dose: 25.0 mg/kg/injection, schedule: Q01DX009 (ip), vehicle: saline 104 % of control | dose: 50.0 mg/kg/injection, schedule: Q01DX009 (ip), vehicle: saline 107 % of control

O=C1OCc2c1cc1n(c2=O)Cc2cc3ccccc3nc2-1
inactive: [1] 89 % of control | [2] 89 % of control | [3] 103 % of control

COc1ccc2c(c1)CC1c3[nH]c4ccccc4c3CCN1C2 (stereo unspecified)
inactive: [1] 94 % of control | [2] 92 % of control

S=C(NC1CCCCC1)N1CCC(CCCC2CCN(C(=S)NC3CCCCC3)CC2)CC1
inactive: [4] 95 % of control | [5] 97 % of control | [6] 97 % of control

Cc1cc(C)[nH]c(=S)n1
inactive: [7] 101 % of control | dose: 100.0 mg/kg/injection, schedule: Q04DX003 (ip), vehicle: saline 97 % of control | [8] 101 % of control | dose: 200.0 mg/kg/injection, schedule: Q04DX003 (ip), vehicle: saline 89 % of control | [9] 94 % of control

Cc1cccc(Cl)c1NC(=O)CCC(=O)O
inactive: dose: 100.0 mg/kg/injection, schedule: Q01DX001 (ip), vehicle: saline 101 % of control | dose: 200.0 mg/kg/injection, schedule: Q01DX001 (ip), vehicle: saline 101 % of control | dose: 400.0 mg/kg/injection, schedule: Q01DX001 (ip), vehicle: saline 95 % of control

CC(C)(C)SCC(NC(=O)OCc1ccccc1)C(=O)O (stereo unspecified)
inactive: dose: 50.0 mg/kg/injection, schedule: Q01DX009 (ip), vehicle: Klucel (hydroxypropylcellulose) (HPC) 100 % of control | dose: 75.0 mg/kg/injection, schedule: Q01DX001 (ip), vehicle: Klucel (hydroxypropylcellulose) (HPC) 91 % of control | dose: 100.0 mg/kg/injection, schedule: Q01DX009 (ip), vehicle: Klucel (hydroxypropylcellulose) (HPC) 89 % of control | dose: 150.0 mg/kg/injection, schedule: Q01DX001 (ip), vehicle: Klucel (hydroxypropylcellulose) (HPC) 94 % of control | dose: 300.0 mg/kg/injection, schedule: Q01DX001 (ip), vehicle: Klucel (hydroxypropylcellulose) (HPC) 94 % of control

Cc1ccccc1C(c1ccccc1)C(CC(=O)O)CC(=O)O (stereo unspecified)
inactive: [4] 96 % of control | dose: 100.0 mg/kg/injection, schedule: Q04DX003 (ip), vehicle: other 100 % of control | [5] 95 % of control | dose: 200.0 mg/kg/injection, schedule: Q04DX003 (ip), vehicle: other 103 % of control | [6] 93 % of control | dose: 400.0 mg/kg/injection, schedule: Q04DX003 (ip), vehicle: other 106 % of control

O=C1c2ccccc2C(=O)N1CCOCCOCCN1C(=O)c2ccccc2C1=O
inactive: dose: 25.0 mg/kg/injection, schedule: Q01DX009 (ip), vehicle: saline with Tween-80 108 % of control | dose: 50.0 mg/kg/injection, schedule: Q01DX009 (ip), vehicle: saline with Tween-80 96 % of control and 92 % of control | [4] 88 % of control and 92 % of control | dose: 100.0 mg/kg/injection, schedule: Q04DX002 (ip), vehicle: Klucel (hydroxypropylcellulose) (HPC) 98 % of control | [5] 98 % of control | [10] 98 % of control | [11] 98 % of control

CC1(C)C2=CCCCC2CC/C1=N\O (stereo unspecified)
inactive: [1] 105 % of control | [2] 105 % of control | [3] 100 % of control

CCCCCCCCC(=O)N(CCCC)CCCC
inactive: dose: 100.0 mg/kg/injection, schedule: Q01DX009 (ip), vehicle: carboxymethylcellulose (CMC) 97 % of control and 100 % of control | dose: 100.0 mg/kg/injection, schedule: Q04DX002 (ip), vehicle: carboxymethylcellulose (CMC) 94 % of control | dose: 200.0 mg/kg/injection, schedule: Q01DX009 (ip), vehicle: carboxymethylcellulose (CMC) 93 % of control and 100 % of control | dose: 200.0 mg/kg/injection, schedule: Q04DX002 (ip), vehicle: carboxymethylcellulose (CMC) 93 % of control | dose: 400.0 mg/kg/injection, schedule: Q01DX009 (ip), vehicle: carboxymethylcellulose (CMC) 89 % of control | dose: 400.0 mg/kg/injection, schedule: Q04DX002 (ip), vehicle: carboxymethylcellulose (CMC) 93 % of control

O=[N+]([O-])c1ccccc1C=Nc1ccccc1
inactive: dose: 100.0 mg/kg/injection, schedule: Q01DX009 (ip), vehicle: acetone 96 % of control | dose: 100.0 mg/kg/injection, schedule: Q04DX003 (ip), vehicle: acetone 106 % of control | dose: 200.0 mg/kg/injection, schedule: Q01DX009 (ip), vehicle: acetone 98 % of control | dose: 200.0 mg/kg/injection, schedule: Q04DX003 (ip), vehicle: acetone 97 % of control | dose: 400.0 mg/kg/injection, schedule: Q01DX009 (ip), vehicle: acetone 102 % of control | dose: 400.0 mg/kg/injection, schedule: Q04DX003 (ip), vehicle: acetone 101 % of control

CCOC(=O)c1c[nH]c2ccc(N(CCCl)CCCl)cc12
inactive: dose: 5.0 mg/kg/injection, schedule: Q01DX001 (ip), vehicle: carboxymethylcellulose (CMC) 98 % of control | dose: 10.0 mg/kg/injection, schedule: Q01DX001 (ip), vehicle: carboxymethylcellulose (CMC) 104 % of control | dose: 20.0 mg/kg/injection, schedule: Q01DX001 (oral), vehicle: carboxymethylcellulose (CMC) 98 % of control | dose: 40.0 mg/kg/injection, schedule: Q01DX001 (oral), vehicle: carboxymethylcellulose (CMC) 103 % of control | dose: 80.0 mg/kg/injection, schedule: Q01DX001 (oral), vehicle: carboxymethylcellulose (CMC) 103 % of control | dose: 160.0 mg/kg/injection, schedule: Q01DX001 (oral), vehicle: carboxymethylcellulose (CMC) 107 % of control | dose: 320.0 mg/kg/injection, schedule: Q01DX001 (oral), vehicle: carboxymethylcellulose (CMC) 115 % of control

C1CC2(C34CCC(CC3)C4)CCC1C2
inactive: dose: 50.0 mg/kg/injection, schedule: Q01DX001 (ip), vehicle: carboxymethylcellulose (CMC) 105 % of control | dose: 100.0 mg/kg/injection, schedule: Q01DX001 (ip), vehicle: carboxymethylcellulose (CMC) 96 % of control | dose: 200.0 mg/kg/injection, schedule: Q01DX001 (ip), vehicle: carboxymethylcellulose (CMC) 105 % of control | dose: 400.0 mg/kg/injection, schedule: Q01DX001 (ip), vehicle: carboxymethylcellulose (CMC) 88 % of control

O=C(Nc1ccc(C(=O)O)cc1)Nc1cccc(C(F)(F)F)c1
inactive: [4] 93 % of control | [5] 87 % of control

NC(N)=N/N=C/C(Cl)(Cl)Cl
inactive: dose: 15.0 mg/kg/injection, schedule: Q01DX Z (ip), vehicle: saline 87 % of control | dose: 30.0 mg/kg/injection, schedule: Q01DX Z (ip), vehicle: saline 103 % of control | dose: 60.0 mg/kg/injection, schedule: Q01DX Z (ip), vehicle: saline 95 % of control | dose: 60.0 mg/kg/injection, schedule: Q01DX Z (oral), vehicle: saline 97 % of control | dose: 120.0 mg/kg/injection, schedule: Q01DX Z (oral), vehicle: saline 97 % of control | dose: 240.0 mg/kg/injection, schedule: Q01DX Z (oral), vehicle: saline 95 % of control | dose: 480.0 mg/kg/injection, schedule: Q01DX Z (oral), vehicle: saline 98 % of control

c1ccc(-c2nc(Oc3ccc(Oc4nc(-c5ccccc5)nc(-c5ccccc5)n4)cc3)nc(-c3ccccc3)n2)cc1
inactive: dose: 25.6 mg/kg/injection, schedule: Q04DX002 (ip), vehicle: saline with Tween-80 91 % of control | dose: 64.0 mg/kg/injection, schedule: Q04DX002 (ip), vehicle: saline with Tween-80 97 % of control | dose: 160.0 mg/kg/injection, schedule: Q04DX002 (ip), vehicle: saline with Tween-80 87 % of control | dose: 200.0 mg/kg/injection, schedule: Q04DX003 (ip), vehicle: saline with Tween-80 86 % of control | dose: 400.0 mg/kg/injection, schedule: Q04DX002 (ip), vehicle: saline with Tween-80 97 % of control

O=C(Cc1ccccc1)c1ccc(O)cc1
inactive: dose: 100.0 mg/kg/injection, schedule: Q04DX003 (ip), vehicle: Klucel (hydroxypropylcellulose) (HPC) 102 % of control | dose: 200.0 mg/kg/injection, schedule: Q04DX003 (ip), vehicle: Klucel (hydroxypropylcellulose) (HPC) 102 % of control | dose: 400.0 mg/kg/injection, schedule: Q04DX003 (ip), vehicle: Klucel (hydroxypropylcellulose) (HPC) 88 % of control

C[CH2][Ge]1([CH2]C)[CH2]CC2(C[CH2]1)NC(=O)NC2=O
inactive: [7] 103 % of control | [8] 100 % of control | [9] 96 % of control

Nc1nc(N)c2cc(N3CCCC3c3ccc(Cl)cc3)ccc2n1 (stereo unspecified)
inactive: dose: 25.0 mg/kg/injection, schedule: Q01DX009 (ip), vehicle: water 87 % of control

O=C(O)CO/N=C/c1ccccc1Cl
inactive: [10] 98 % of control | [11] 95 % of control
